{
  "source": "patent US12590338B2",
  "about": "“Method and device for detection of ampicillin-resistant non-typhoidal Salmonella” (priority 2018, dated 2026)",
  "test_system": "NTS clinical isolates",
  "assay": "Antibiotics susceptibility test to ampicillin (CLSI disc inhibition zone and/or MIC); note: key: R = Resistant to ampicillin; S = Susceptible to ampicillin",
  "type": "cell-based, non-typhoidal Salmonella",
  "procedure": "Before the NGS study, the antimicrobial susceptibility to ampicillin in the 169 isolates was re-confirmed using the disc inhibition zones or MICs (FIG. 1). Then, the bacterial DNAs were extracted from 53 NTS isolates and NGS was performed using the Illumina© MiSeq sequencer. Subsequently, the NTS serotypes of 53 NTS clinical isolates were confirmed by multilocus sequence typing (MLST) as shown in Table 1. The big genomic data were analyzed to examine presence of plasmid-mediated genes or genetic mutations in the bacterial genome of Salmonella spp. and other bacteria reported in the PubMed, ARG-ANNOT, CARD, and ResFinder (FIG. 1).\nThe 169 NTS clinical isolates were tested for antimicrobial susceptibility based on (CLSI) guidelines. Briefly, bacteria were spread onto Mueller-Hinton MH agar, and co-incubated with antimicrobial disks (Oxoid, Cambridge, UK) of ampicillin individually at 37° C. for 18 hours. Another alternative is measurement of the minimum inhibitory concentrations (MICs) of ampicillin in serial dilutions of ampicillin co-cultured with bacterial solution of NTS isolates. Finally, the resistance to ampicillin in NTS isolates was determined according to the diameter of inhibition zone (≤13 mm) and/or the MIC of ampicillin>16 μg/mL according to the guideline of CLSI.",
  "data": [
    {"smiles": "CC1(C)S[C@@H]2[C@H](NC(=O)[C@H](N)c3ccccc3)C(=O)N2[C@H]1C(=O)O", "note": "[ampicillin]", "values": [
      {"measurement": "AMP-R", "setting": "NTS isolate SH-12, serotype Amsterdam", "value": "S"},
      {"measurement": "AMP-R", "setting": "NTS isolate SH-A1, serotype Enteritidis", "value": "S"},
      {"measurement": "AMP-R", "setting": "NTS isolate SH-B2, serotype Enteritidis", "value": "R"},
      {"measurement": "AMP-R", "setting": "NTS isolate SH-B5, serotype Enteritidis", "value": "R"},
      {"measurement": "AMP-R", "setting": "NTS isolate SH-C2, serotype Newport", "value": "S"},
      {"measurement": "AMP-R", "setting": "NTS isolate SH-C3, serotype Enteritidis", "value": "S"},
      {"measurement": "AMP-R", "setting": "NTS isolate SH-C4, serotype Typhimurium", "value": "R"},
      {"measurement": "AMP-R", "setting": "NTS isolate SH-D2, serotype Enteritidis", "value": "S"},
      {"measurement": "AMP-R", "setting": "NTS isolate SH-D4, serotype Enteritidis", "value": "S"},
      {"measurement": "AMP-R", "setting": "NTS isolate SH-D5, serotype Typhimurium", "value": "S"},
      {"measurement": "AMP-R", "setting": "NTS isolate SH-E1, serotype Unknown", "value": "R"},
      {"measurement": "AMP-R", "setting": "NTS isolate SH-E2, serotype Virchow", "value": "S"},
      {"measurement": "AMP-R", "setting": "NTS isolate SH-E3, serotype Newport", "value": "S"},
      {"measurement": "AMP-R", "setting": "NTS isolate SH-F4, serotype Typhimurium", "value": "R"},
      {"measurement": "AMP-R", "setting": "NTS isolate SH-F5, serotype Enteritidis", "value": "R"},
      {"measurement": "AMP-R", "setting": "NTS isolate SH-G1, serotype Stanley", "value": "S"},
      {"measurement": "AMP-R", "setting": "NTS isolate SH-G2, serotype Typhimurium", "value": "R"},
      {"measurement": "AMP-R", "setting": "NTS isolate SH-G3, serotype Enteritidis", "value": "R"},
      {"measurement": "AMP-R", "setting": "NTS isolate SH-G5, serotype Albany", "value": "R"},
      {"measurement": "AMP-R", "setting": "NTS isolate SH-H3, serotype Derby", "value": "S"},
      {"measurement": "AMP-R", "setting": "NTS isolate SH-H4, serotype Newport", "value": "R"},
      {"measurement": "AMP-R", "setting": "NTS isolate TSAR-C1, serotype Schwarzengrund", "value": "R"},
      {"measurement": "AMP-R", "setting": "NTS isolate TSAR-C2, serotype Schwarzengrund", "value": "R"},
      {"measurement": "AMP-R", "setting": "NTS isolate TSAR-C3, serotype Schwarzengrund", "value": "R"},
      {"measurement": "AMP-R", "setting": "NTS isolate TSAR-C4, serotype Typhimurium", "value": "R"},
      {"measurement": "AMP-R", "setting": "NTS isolate TSAR-C5, serotype Choleraesuis", "value": "R"},
      {"measurement": "AMP-R", "setting": "NTS isolate TSAR-C6, serotype Typhimurium", "value": "R"},
      {"measurement": "AMP-R", "setting": "NTS isolate TSAR-C7, serotype Typhimurium", "value": "R"},
      {"measurement": "AMP-R", "setting": "NTS isolate TSAR-C10, serotype Enteritidis", "value": "R"},
      {"measurement": "AMP-R", "setting": "NTS isolate TSAR-C13, serotype Stanley", "value": "R"},
      {"measurement": "AMP-R", "setting": "NTS isolate TSAR-C16, serotype Typhimurium", "value": "R"},
      {"measurement": "AMP-R", "setting": "NTS isolate TSAR-C19, serotype Stanley", "value": "R"},
      {"measurement": "AMP-R", "setting": "NTS isolate TSAR-E5, serotype Choleraesuis", "value": "R"},
      {"measurement": "AMP-R", "setting": "NTS isolate TSAR-E9, serotype Choleraesuis", "value": "R"},
      {"measurement": "AMP-R", "setting": "NTS isolate TSAR-E10, serotype Typhimurium", "value": "R"},
      {"measurement": "AMP-R", "setting": "NTS isolate TSAR-E16, serotype Virchow", "value": "R"},
      {"measurement": "AMP-R", "setting": "NTS isolate TSAR-E18, serotype Meleagridis", "value": "R"},
      {"measurement": "AMP-R", "setting": "NTS isolate TSAR-E19, serotype Newport", "value": "R"},
      {"measurement": "AMP-R", "setting": "NTS isolate TSAR-E20, serotype Typhimurium", "value": "R"},
      {"measurement": "AMP-R", "setting": "NTS isolate TSAR-N5, serotype Typhimurium", "value": "R"},
      {"measurement": "AMP-R", "setting": "NTS isolate TSAR-N8, serotype Typhimurium", "value": "R"},
      {"measurement": "AMP-R", "setting": "NTS isolate TSAR-N9, serotype Montevideo", "value": "R"},
      {"measurement": "AMP-R", "setting": "NTS isolate TSAR-N15, serotype Schwarzengrund", "value": "R"},
      {"measurement": "AMP-R", "setting": "NTS isolate TSAR-N16, serotype Agona", "value": "R"},
      {"measurement": "AMP-R", "setting": "NTS isolate TSAR-N19, serotype Enteritidis", "value": "R"},
      {"measurement": "AMP-R", "setting": "NTS isolate TSAR-S13, serotype Albany", "value": "R"},
      {"measurement": "AMP-R", "setting": "NTS isolate TSAR-S14, serotype Typhimurium", "value": "R"},
      {"measurement": "AMP-R", "setting": "NTS isolate TSAR-S15, serotype Enteritidis", "value": "R"},
      {"measurement": "AMP-R", "setting": "NTS isolate TSAR-S16, serotype Agona", "value": "R"},
      {"measurement": "AMP-R", "setting": "NTS isolate TSAR-S17, serotype Newport", "value": "R"},
      {"measurement": "AMP-R", "setting": "NTS isolate TSAR-S18, serotype Newport", "value": "R"},
      {"measurement": "AMP-R", "setting": "NTS isolate TSAR-S19, serotype Agona", "value": "R"},
      {"measurement": "AMP-R", "setting": "NTS isolate TSAR-S20, serotype Livingstone", "value": "R"}
    ]}
  ]
}
